# Key:
# [1] = biological target: Recombinant furin (Homo sapiens, UniProt P09958); experiment: biochemical; format: biochemical
# Protocol: To determine if the peptides described herein have an effect on the activity of PC enzymes which are involved in a condition or disorder such as fibrosis, the effect of the peptides on furin activity in vitro was measured as percent inhibition of cleavage of the furin substrate fluorogenic t-butyloxycarbonyl (Boc)-RVRR-7-amino-4-methylcoumarin (MCA).
# All in vitro enzyme studies were performed at room temperature in a final volume of 50-100 μl in 96-well flat-bottom black plates. The buffer consisted of 100 mM HEPES, 1 mM CaCl2, 0.5% TritonX-100, and 1 mM 2-β-mercaptoethanol pH 7.5. Assays were performed using Boc-RVRR-MCA as fluorogenic substrate at 100 μM. Recombinant furin (0.8 U of activity) was incubated with Boc-RVRR-MCA in the presence or absence of varying concentrations of synthetic peptides D-9Rac/am (SEQ ID NO. 15), L-Bel1 (SEQ ID NO. 3), or L-9K (SEQ ID NO. 6). One unit of activity is defined as the amount of furin that can release 1 μmol of MCA from the fluorogenic Boc-RVRR-MCA per min at 30° C. The release of highly fluorescent 7-amino 4-methyl coumarin (MCA) from the Boc-RVRR-MCA was monitored by a spectrofluorometer instrument at excitation and emission wavelengths of 370 nm/460 nm. […]
# [2] = system: PC-12 cells; experiment: Actin cytoskeleton organization, phalloidin-TRITC staining; format: cell-based, rat
# Protocol: Slides with PC-12 cells were prepared as stated previously for localization studies. Briefly, cells were exposed to FITC-labeled or unlabeled peptides, at various concentrations, for 30 minutes, fixed and then permeabilized. Subsequently, F-actin was fluorescently labeled with phalloidin-Tetramethyl Rhodamine Iso-Thiocyanate (TRITC) (Sigma Aldrich) conjugate, diluted on saponin buffer (0.25 μg/ml), and nuclear staining with DAPI dihydrochloride (Sigma Aldrich) (0.02 μg/ml), at room temperature for maximum 30 minutes. Finally, slides were mounted and sealed, and stored at 4° C. protected from light. The effect of the peptides to actin polymerization was analyzed by confocal microscopy, as described before.
# [3] = system: rat lung fibroblast (LF); experiment: Cell contraction/relaxation on wrinkling silicone substrate, live videomicroscopy; format: cell-based; details: 10 μM and 50 μM
# Protocol: To study the effect(s) of the peptides on muscle cells, which associate with neurosecretory cells at neuromuscular junctions, peptides were cultured with rat lung fibroblast (LF) grown over wrinkling substrate (silicon) which can mimic the effects of contraction. These cells have a myofibroblastic phenotype, e.g., production of TGF-β, which make them suitable for cellular contraction/relaxation studies.
# Wrinkling silicone substrates were prepared as essentially described previously (Harris, et al., Science. 208:177-179, 1980; Hinz, et al., Mol Biol Cell. 12:2730-41, 2001). Briefly, 50 μl of silicone (poly dimethyl siloxane; 30.000 centistokes, Dow Corning, Midland, Mich.) were deposited onto a 35 mm round glass coverslip at the bottom of a self-made observation chamber, which was centrifuged at 1.000 rpm for 2 minutes to spread the viscous fluid. The silicone surface was then crosslinked by passing it through a Bunsen flame; a flaming time of 1 second produced a surface stiffness that restricted wrinkle formation to fibroblasts with high contractile force (Hinz et al., supra). The polymerized silicone surface was finally coated with 10 μg/ml collagen type I (Sigma) for 2 hours at 37° C. Lung fibroblast cells were seeded at a density of 3.5×10^3 cells/cm^2 and cultured for 1-2 days before the experiment. […]
# Sequence of Recombinant furin (P09958 108-794): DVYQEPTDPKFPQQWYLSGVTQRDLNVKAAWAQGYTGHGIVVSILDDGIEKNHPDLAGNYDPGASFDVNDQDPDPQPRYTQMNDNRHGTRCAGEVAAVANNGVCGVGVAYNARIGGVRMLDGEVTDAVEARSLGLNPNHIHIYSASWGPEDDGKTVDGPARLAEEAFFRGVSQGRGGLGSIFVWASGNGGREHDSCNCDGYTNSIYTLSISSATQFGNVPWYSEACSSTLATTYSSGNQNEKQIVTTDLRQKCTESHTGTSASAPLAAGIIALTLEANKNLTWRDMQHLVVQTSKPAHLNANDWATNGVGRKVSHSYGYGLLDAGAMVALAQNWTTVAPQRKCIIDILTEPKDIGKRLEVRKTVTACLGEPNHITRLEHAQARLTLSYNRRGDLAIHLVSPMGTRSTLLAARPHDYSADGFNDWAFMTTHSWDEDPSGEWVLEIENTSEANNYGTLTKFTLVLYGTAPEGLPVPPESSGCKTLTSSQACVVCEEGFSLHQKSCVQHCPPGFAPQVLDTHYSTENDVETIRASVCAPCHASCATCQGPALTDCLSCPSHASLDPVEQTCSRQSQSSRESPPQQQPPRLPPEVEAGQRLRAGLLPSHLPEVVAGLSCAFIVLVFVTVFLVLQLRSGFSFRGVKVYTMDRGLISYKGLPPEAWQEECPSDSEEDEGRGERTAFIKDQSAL
structure (smiles),measurement,setting,value
N=C(N)NCCC[C@H](NC(=O)CNC(=O)[C@H](Cc1ccc(O)cc1)NC(=O)CN)C(=O)N[C@@H](CCCCN)C(=O)N[C@@H](CCCCN)C(=O)N[C@@H](CCCNC(=N)N)C(=O)N[C@@H](CCCNC(=N)N)C(=O)N[C@@H](CCC(N)=O)C(=O)N[C@@H](CCCNC(=N)N)C(=O)N[C@@H](CCCNC(=N)N)C(=O)N[C@@H](CCCNC(=N)N)C(=O)NCC(=O)O [L-Tat],concentration for complete blockade of cleavage of Boc-RVRR-MCA by furin,[1],3.5 µM
same,inhibition of in vitro furin activity (in words),[1]; Boc-RVRR-MCA 100 μM as substrate,inhibited to completion
same,Ki,"[1]; furin, Boc-RVRR-MCA substrate, read-out: Ki(app)",370 nM
same,effect on actin content and organization at higher concentration,[2]; 100 μM,almost lost
same,effect on actin content and organization,"[2]; 2 to 10 μM, 30 minutes, labeled or unlabeled",decreased actin content and organization
same,relaxing effect on lung myofibroblasts on silicon substrate,[3],slow but constant loss of silicon substrate wrinkles and cell detachment

# From US8318898B2, “Synthetic peptides for use as inhibitors of neurotransmitter secretion and as inducers of cellular relaxation” (Universite de Lausanne, priority 2005, dated 2012)
